The values that follow come from US20180185370A1, “PYRAZINOQUINAZOLINONE DERIVATIVES WITH ANTIBACTERIAL ACTIVITY, METHODS AND USES THEREOF” (UNIVERSIDADE DO PORTO, priority 2015, published 2018).

Read-outs that look alike come from different tables or passages of the source.

Assay [1] deals with E. coli ATCC 25922. As to the kind of experiment: Antibacterial susceptibility testing, broth microdilution (MIC). The conditions noted are these: for MIC: Escherichia coli, ATCC25922, read-out: Minimum inhibitory concentration-MIC. It counts as cell-based, Escherichia coli. How it is done:
(§1) Bacterial strains and growth conditions. Five reference strains, Staphylococcus aureus ATCC 25923, Bacillus subtilis ATCC 6633, E. faecalis ATCC 29212, Escherichia coli ATCC 25922 and Pseudomonas aeruginosa ATCC 27853, and three multidrug-resistant isolates from environment, S. aureus B1 (a MRSA isolated from public buses), Enterococcus faecalis W1 (a VRE isolated from river water) and E. coli G1 (isolated from seagull feces) were used. Bacteria were grown overnight at 37° C. in Mueller-Hinton agar (MH—BioKar diagnostics, Allonne, France) prior to obtain be used in the subsequently described bioassays.
(§2) Antibacterial susceptibility testing. The minimum inhibitory concentration (MIC) values of the compounds of FIGS. 1D, 1E, 1G, 1H (equation i-iv) and 11 (equations v-x) were determined, in particular, by a broth microdilution technique, following the recommendations of the Clinical and Laboratory Standards Institute. Stock solutions of 10 mg/ml in DMSO were used to prepare in-test concentrations ranging from 2 to 256 μg/ml. Ciprofloxacin in the concentration range from 0.03125 to 16 μg/ml was used, in particular, as control drug in the experiment. The MIC was defined as the lowest concentration of compound that has inhibited the visible growth. The minimum bactericidal concentration (MBC) was determined by spreading on MH plates, 10 μL collected from the wells corresponding to the MIC and to higher concentrations, with further incubation for 24 h at 37° C.; the lowest concentration at which no growth occurred on MH was defined as the MBC.
For orientation: In broth dilution the organism is exposed to a series of concentrations in liquid medium.

The subject of assay [2] is P. aeruginosa ATCC 27853. The description is as above. It counts as cell-based, Pseudomonas aeruginosa. As to conditions: for MIC: Pseudomonas aeruginosa, ATCC27853, read-out: Minimum inhibitory concentration-MIC. The procedure:
as §1, §2

Assay [3] relates to B. subtilis ATCC 6633. As to the kind of experiment: Antibacterial susceptibility testing, broth microdilution (MIC/MBC). Type of assay: cell-based, Bacillus subtilis. The conditions noted are these: for MIC: Bacillus subtilis, ATCC6633, read-out: Minimum inhibitory concentration-MIC. How it is done: as §1, §2
In assay [4] the test system is S. aureus B1 (MRSA). The description is as above. It counts as cell-based, Staphylococcus aureus. The conditions noted are these: for MIC: Staphylococcus aureus, read-out: Minimum inhibitory concentration-MIC. How it is done: as §1, §2
Assay [5] relates to S. aureus ATCC 25923. The description is as above. Type of assay: cell-based, Staphylococcus aureus. As to conditions: for MIC: Staphylococcus aureus, ATCC25923, read-out: Minimum inhibitory concentration-MIC. The procedure: as §1, §2
Assay [6] relates to E. faecalis ATCC 29212. The assay is described as above. Type of assay: cell-based, Enterococcus faecalis. As to conditions: for MIC: Enterococcus faecalis, ATCC29212, read-out: Minimum inhibitory concentration-MIC. The procedure: as §1, §2
Assay [7] concerns E. faecalis W1 (VRE). Described as above. It counts as cell-based, Enterococcus faecalis. The conditions noted are these: for MIC: Enterococcus faecalis, read-out: Minimum inhibitory concentration-MIC. How it is done: as §1, §2
Assay [8] deals with S. aureus B1. As to the kind of experiment: Synergy screening with antibiotic discs, disc diffusion method. It counts as cell-based, Staphylococcus aureus. As to conditions: not in combination; MRSA isolate S. aureus B1. How it is done: (§3) Synergistic studies between compounds and antibiotics. A screening susceptibility test to assess the combined effect between the compounds and antibiotics was conducted using the disc diffusion method on MH, against three multidrug-resistant isolates, E. coli G1, S. aureus B1 and E. faecalis W1. A set of antibiotic discs (Oxoid, Basingstoke, England) was selected based on the resistance of the isolates towards those antibiotics. Based on the results of the previous assay, an unexpected synergetic effect between fiscalin C (see FIG. 1I, equation v) and oxacillin (Sigma-Aldrich, St. Louis, Mo., USA) was determined using, in particular, a broth microdilution Checkerboard method against the MRSA isolate (S. aureus B1). The fractional inhibitory concentration (FIC) was calculated as follows: FIC of drug A (FIC A)=MIC of drug A in combination/MIC of drug A alone, and FIC of drug B (FIC B)=MIC of drug B in combination/MIC of drug B alone. The FIC index (ΣFIC), calculated as the sum of each FIC, was interpreted as follows: ΣFIC 0.5, synergy; 0.5<ΣFIC 4, no interaction; 4<ΣFIC, antagonism.
On the technique in general: Agar diffusion results depend on both activity and mobility in agar.

Assay [9] relates to S. aureus B1. As to the kind of experiment: Broth microdilution Checkerboard method. Type of assay: cell-based, Staphylococcus aureus. The conditions noted are these: Staphylococcus aureus. The procedure: as §3, with “Based on the results of the previous assay, an unexpected synergetic effect between fiscalin C (see FIG. 1I, equation v) and oxacillin (Sigma-Aldrich, St. Louis, Mo., USA) was determined using, in particular, a broth microdilution Checkerboard method against the MRSA isolate (S. aureus B1).” left out

Turning to `CC(=O)O[C@H](c1nc2ccccc2c(=O)n1[C@@H]1C[C@]2(OC1=O)c1ccccc1N1C(=O)C(C)(C)N(O)[C@H]12)C(C)C` [FIG. 1E, tryptoquivaline], the MIC in assay [1], in assay [2], in assay [3], in assay [4] (MRSA), in assay [5] and in [6] was above 256 µg/mL in each case. The MIC in assay [7] (VRE) was above 256 µg/mL.

On to `C[C@@H]1N[C@@H]2N(C1=O)c1ccccc1[C@@]21C[C@@H](n2cnc3ccccc3c2=O)C(=O)O1` [FIG. 1H (eq. iii), tryptoquivaline F], for which the “Minimum inhibitory concentration-MIC” value in [1], in assay [2], in assay [3], in assay [4] (S. aureus B1 (MRSA)), in assay [5] and in [6] was above 256 µg/mL in each case. Moreover, the “Minimum inhibitory concentration-MIC” value in [7] (E. faecalis W1 (VRE)) was above 256 µg/mL.

Consider epi-fiscalin C [FIG. 1I (eq. vi)], for which the “Minimum inhibitory concentration-MIC” value in assay [1], in assay [2], in assay [3], in [4] (S. aureus B1 (MRSA)), in assay [5] and in [6] was above 256 µg/mL in each case. For the same compound, the “Minimum inhibitory concentration-MIC” value in [7] (E. faecalis W1 (VRE)) is above 256 µg/mL.

On to `CC1(C)S[C@@H]2[C@H](NC(=O)[C@H](N)c3ccccc3)C(=O)N2[C@H]1C(=O)O` [Ampicillin, ampicillin, reference compound], for which, in [8], the “zone of inhibition on agar plates” value is “neither fiscalin C, ampicillin or oxacillin produced any zone of inhibition”. For the same compound, in assay [9] (B1), the MIC worked out at 128 µg/mL.

As for epi-neofiscalin A [FIG. 1I (eq. x)], the “Minimum inhibitory concentration-MIC” value in assay [1], in assay [2], in assay [3], in [4] (S. aureus B1 (MRSA)), in assay [5] and in assay [6] was above 256 µg/mL in each case. Moreover, in assay [7] (E. faecalis W1 (VRE)), the “Minimum inhibitory concentration-MIC” value was above 256 µg/mL.

Turning to `CC(C)[C@@H]1NC(=O)[C@@H](C[C@]2(O)c3ccccc3N3C(=O)[C@H](C)N[C@H]32)n2c1nc1ccccc1c2=O` [FIG. 1I (eq. vii), fiscalin A], the “Minimum inhibitory concentration-MIC” value in assay [1], in assay [2], in assay [3], in [4] (S. aureus B1 (MRSA)), in assay [5] and in [6] was above 256 µg/mL in each case. The “Minimum inhibitory concentration-MIC” value in assay [7] (E. faecalis W1 (VRE)) is above 256 µg/mL.

For the compound `C[C@H]1C(=O)N2c3ccccc3[C@@]3(C[C@@H](n4cnc5ccccc5c4=O)C(=O)O3)[C@@H]2N1O` [FIG. 1H (eq. ii), tryptoquivaline H], the “Minimum inhibitory concentration-MIC” value in assay [1], in assay [2], in assay [3], in assay [4] (S. aureus B1 (MRSA)), in assay [5] and in assay [6] was above 256 µg/mL in each case. In addition, the “Minimum inhibitory concentration-MIC” value in [7] (E. faecalis W1 (VRE)) is above 256 µg/mL.

tryptoquivaline O [FIG. 1H (eq. iv)]: the “Minimum inhibitory concentration-MIC” value in assay [1], in assay [2], in assay [3], in [4] (S. aureus B1 (MRSA)), in [5] and in assay [6] was above 256 µg/mL in each case. Besides, the “Minimum inhibitory concentration-MIC” value in assay [7] (E. faecalis W1 (VRE)) was above 256 µg/mL.

In the case of `CC(C)[C@H]1NC(=O)[C@@H](C[C@]2(O)c3ccccc3N3C(=O)[C@H](C)N[C@H]32)n2c1nc1ccccc1c2=O` [FIG. 1I (eq. viii), epi-fiscalin A], the “Minimum inhibitory concentration-MIC” value in assay [1], in assay [2], in [3], in assay [4] (S. aureus B1 (MRSA)), in [5] and in [6] was above 256 µg/mL each time. Besides, the “Minimum inhibitory concentration-MIC” value in [7] (E. faecalis W1 (VRE)) is above 256 µg/mL.

In the case of `CC1(C)C(=O)N2c3ccccc3C3(CC(n4cnc5ccccc5c4=O)C(=O)O3)C2N1O` (stereo not drawn) [FIG. 1H (eq. i), tryptoquivaline L], the “Minimum inhibitory concentration-MIC” value in assay [1], in assay [2], in assay [3], in assay [4] (S. aureus B1 (MRSA)), in [5] and in assay [6] was above 256 µg/mL throughout. Further, the “Minimum inhibitory concentration-MIC” value in [7] (E. faecalis W1 (VRE)) is above 256 µg/mL.

Consider `Cc1onc(-c2ccccc2)c1C(=O)N[C@@H]1C(=O)N2[C@@H]1SC(C)(C)[C@@H]2C(=O)O` [Oxacillin, oxacillin, reference compound], for which the “zone of inhibition on agar plates” value in assay [8] is reported as “neither fiscalin C, ampicillin or oxacillin produced any zone of inhibition”. In addition, the MIC in assay [9] (drug alone, S. aureus B1, read-out: MIC) turned out to be 128 µg/mL.

Turning to `CC(C)[C@]12NC(=O)[C@H](Cc3c1[nH]c1ccccc31)n1c2nc2ccccc2c1=O` [FIG. 1D, sartorymensin], the “Minimum inhibitory concentration-MIC” value in assay [1], in assay [2], in [3], in assay [4] (S. aureus B1 (MRSA)), in assay [5] and in [6] was above 256 µg/mL in each case. For the same compound, in assay [7] (E. faecalis W1 (VRE)), the “Minimum inhibitory concentration-MIC” value is above 256 µg/mL.

Regarding `O=C1OC2(CC1n1cnc3ccccc3c1=O)C(=O)Nc1ccccc12` (stereo not drawn) [FIG. 1G, 3′-(4oxoquinazolin-3yl) spiro [1H-indole-3,5′-oxolane]-2,2′-dione], the MIC in assay [1], in assay [2], in [3], in assay [4] (S. aureus B1 (MRSA)), in [5] and in assay [6] was above 256 µg/mL each time. For the same compound, in [7] (E. faecalis W1 (VRE)), the MIC is above 256 µg/mL.
